Reference: patent publication US10227347B2, “Purinyl-N-hydroxyl pyrimidine formamide derivative, preparation methods and uses thereof” (Guizhou Bailing Group Pharmaceutical CO., LTD., priority 2015, dated 2019)
Where two headings read alike, the source gives them in different places.

Assays:
PI3Kα = biological target: T1, PI3Kα (Homo sapiens, UniProt P42336); experiment: PI3Kα activity inhibition (Kinase-Glo); type: biochemical
T1 construct: purchased Invitrogen PV4788
Description: Detecting the inhibition capability of the compound to PI3Kα and PI3Kδ activities with Kinase-Glo (purchased from Promege Company; Catalog No.: V3771). […] The reaction system also comprises substrates as PIP2 (4, 5-diphosphoinositide, purchased from Life Technologies Company) and ATP (triphosadenine, purchased from Sigma Company). The reaction buffer system comprises 50 mM HEPES (4-hydroxyethylpiperazine ethane sulfonic acid), 3 mM MgCl2, 1 mM EGTA (ethylene glycol bis(2-amino ethylether)quadrol), 100 mM NaCl, 0.03% CHAPS (3-[3-(cholamidopropyl)dimethylamino]-1-propanesulfonic acid), 2 mM DTT (dithiothreitol). The pH value of the reaction buffer is 7.5. […] Mixing the system evenly for incubation under ambient temperature (for 1 h in PI3Kα test and for 2 h in PI3Kδ test). After incubation, adding 10 μL Kinase-Glo which has been preheated to ambient temperature into each reaction well to terminate the reaction; shaking it in dark place for 15 min after it is mixed evenly, then measuring the fluorescence intensity with a microplate reader and analyzing the result data with the software GraphPad Prism.
(§1) Calculating the value of IC50 as per the formula: Y=background data+(top data−background data)/(1+10^((Log IC50−X)*rate of curve))
Where, Y refers to the inhibition ratio (%) and X refers to the compound concentration.

[1] = system: MV4-11 cells (acute myeloid leukemia); experiment: Cell proliferation inhibition, MV4-11 (cck-8); type: cell-based; conditions: Homo sapiens
Description: (§2) The tumor cell lines are purchased from American Type Culture Collection (ATCC) and cultivated to the status of logarithmic growth as per the cultural method recommended by ATCC. The cells in logarithmic phase are spread on a 96 well plate as per 2000-3000/well; as for anchorage-dependent cells, the compound should be added in the test wells at certain concentration for incubation for 96 h after cell adherence. Determining cell proliferation activities with method MTT for tumor cells representing solid tumor model and with method cck-8 for tumor cells representing hematologic tumor model, and analyzing the result data with the software GraphPad Prism.
(§3) Calculating the value of IC50 as per the formula: Y=background data+(top data−background data)/(1+10^((Log IC50−X)*rate of curve)). Where, Y refers to the inhibition ratio (%) and X refers to the compound concentration.

HDAC1 = biological target: T2, HDAC1 (Homo sapiens, UniProt Q13547); experiment: In vitro HDAC1 enzymatic activity inhibition (Lys-Ac-AMC substrate); type: biochemical
T2 construct: purchased BPS Bioscience
Description: Determining the inhibition capability to HDAC activity through the substrate method of fluorophore 4-amino-7-coumarin coupled Ac-peptide (Lys-Ac-AMC). HDAC1 protein is purchased from BPS Bioscience Company; the reaction buffer system is a modified tris(hydroxymethyl)aminomethane (TRIS) buffer (pH7.0). All small molecule compounds are prepared and dissolved by 100% DMSO (dimethyl sulfoxide). HDAC is prepared into the buffer as per certain concentration to be served as the enzyme solution; trypsin and the fluorophore 4-amino-7-coumarin coupled Ac-peptide substrate are prepared into the buffer as per certain concentration to be served as the substrate solution. Adding the compound into the reaction wells of the 384 well plate at the designed concentration, then adding 15 μL HDAC solution into the reaction wells (adding 15 μL blank buffer into the control well 0) for incubation under ambient temperature for 15 min; then adding 10 μL substrate solution to start reaction; during the reaction, the final concentration of HDAC1 protein is 6 nM, trypsin 0.05 μM and Ac-peptide 8 μM.
as §1
Where, Y refers to the inhibition ratio (%) and X refers to the compound concentration. […]
Analyzing the result data with the software GraphPad Prism and calculating the value of IC50 as per the formula: Y=background data+(top data−background data)/(1+10^((Log IC50−X)*rate of curve)). Where, Y refers to the inhibition ratio (%) and X refers to the compound concentration.

[2] = system: A2780s cells (ovarian cancer); experiment: Cell proliferation inhibition, A2780s (MTT); type: cell-based; conditions: Homo sapiens
Description: as §2, §3

[3] = system: hct116 cells (colon cancer); experiment: Cell proliferation inhibition, hct116 (MTT); type: cell-based; conditions: Homo sapiens, HCT-116
Description: as §2, §3

[4] = Table 1, graded, read-out: PI3Kα IC50
[5] = 96 h incubation, read-out: Proliferation IC50, Acute myeloid leukemia MV4-11
[6] = Table 1, graded, read-out: HDAC1 IC50
[7] = 96 h incubation, read-out: Proliferation IC50, Ovarian cancer A2780s
[8] = 96 h incubation, read-out: Proliferation IC50, Colon cancer hct116
[9] = read-out: IC50 to proliferation of MV4-11 cells
[10] = read-out: IC50 to proliferation of A2780s cells
[11] = read-out: IC50 to proliferation of hct116 cells
[12] = read-out: inhibition value IC50 to the activity of HDAC1

T2 sequence (Q13547 whole entry, species assumed): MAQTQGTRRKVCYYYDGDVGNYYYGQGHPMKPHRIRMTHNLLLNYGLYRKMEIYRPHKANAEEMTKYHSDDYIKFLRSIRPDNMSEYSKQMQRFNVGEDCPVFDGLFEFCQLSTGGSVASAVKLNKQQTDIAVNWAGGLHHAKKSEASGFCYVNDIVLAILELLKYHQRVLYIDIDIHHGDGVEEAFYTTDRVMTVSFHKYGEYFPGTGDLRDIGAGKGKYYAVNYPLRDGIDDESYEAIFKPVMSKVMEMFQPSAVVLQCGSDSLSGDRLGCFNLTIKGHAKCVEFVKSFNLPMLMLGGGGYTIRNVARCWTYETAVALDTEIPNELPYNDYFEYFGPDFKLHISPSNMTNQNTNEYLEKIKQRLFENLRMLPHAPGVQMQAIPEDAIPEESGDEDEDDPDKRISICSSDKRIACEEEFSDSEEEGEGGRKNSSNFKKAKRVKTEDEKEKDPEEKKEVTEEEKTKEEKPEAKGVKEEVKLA
T1 sequence (P42336 whole entry, species assumed): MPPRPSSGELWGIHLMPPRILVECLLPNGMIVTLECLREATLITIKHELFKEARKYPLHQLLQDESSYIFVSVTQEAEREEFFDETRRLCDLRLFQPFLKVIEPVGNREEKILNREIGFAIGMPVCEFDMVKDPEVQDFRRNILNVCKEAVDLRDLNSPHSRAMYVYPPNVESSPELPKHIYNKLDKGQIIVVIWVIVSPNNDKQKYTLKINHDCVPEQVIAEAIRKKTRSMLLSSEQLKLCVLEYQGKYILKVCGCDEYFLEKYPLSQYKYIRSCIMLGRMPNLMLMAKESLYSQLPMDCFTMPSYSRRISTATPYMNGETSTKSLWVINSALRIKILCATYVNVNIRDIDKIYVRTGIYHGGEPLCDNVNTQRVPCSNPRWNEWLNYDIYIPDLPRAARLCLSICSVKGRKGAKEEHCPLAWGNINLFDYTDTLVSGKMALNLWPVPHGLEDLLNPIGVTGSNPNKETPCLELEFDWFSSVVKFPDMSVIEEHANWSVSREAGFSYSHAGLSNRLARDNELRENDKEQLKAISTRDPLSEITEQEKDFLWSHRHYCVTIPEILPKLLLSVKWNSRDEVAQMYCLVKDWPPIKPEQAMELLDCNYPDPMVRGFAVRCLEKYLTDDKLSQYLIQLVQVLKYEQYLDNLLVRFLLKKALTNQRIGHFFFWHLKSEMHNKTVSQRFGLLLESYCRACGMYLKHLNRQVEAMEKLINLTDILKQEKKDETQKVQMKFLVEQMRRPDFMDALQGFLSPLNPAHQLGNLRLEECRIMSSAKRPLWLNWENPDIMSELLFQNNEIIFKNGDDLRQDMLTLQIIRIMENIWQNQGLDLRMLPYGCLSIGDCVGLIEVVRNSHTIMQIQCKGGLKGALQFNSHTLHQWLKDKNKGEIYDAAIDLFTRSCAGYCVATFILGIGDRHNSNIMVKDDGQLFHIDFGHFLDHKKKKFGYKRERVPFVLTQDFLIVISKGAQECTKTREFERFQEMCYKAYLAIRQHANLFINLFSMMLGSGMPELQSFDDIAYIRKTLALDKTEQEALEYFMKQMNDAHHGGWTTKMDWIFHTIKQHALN
T1 sequence (P27986 whole entry partner, species assumed): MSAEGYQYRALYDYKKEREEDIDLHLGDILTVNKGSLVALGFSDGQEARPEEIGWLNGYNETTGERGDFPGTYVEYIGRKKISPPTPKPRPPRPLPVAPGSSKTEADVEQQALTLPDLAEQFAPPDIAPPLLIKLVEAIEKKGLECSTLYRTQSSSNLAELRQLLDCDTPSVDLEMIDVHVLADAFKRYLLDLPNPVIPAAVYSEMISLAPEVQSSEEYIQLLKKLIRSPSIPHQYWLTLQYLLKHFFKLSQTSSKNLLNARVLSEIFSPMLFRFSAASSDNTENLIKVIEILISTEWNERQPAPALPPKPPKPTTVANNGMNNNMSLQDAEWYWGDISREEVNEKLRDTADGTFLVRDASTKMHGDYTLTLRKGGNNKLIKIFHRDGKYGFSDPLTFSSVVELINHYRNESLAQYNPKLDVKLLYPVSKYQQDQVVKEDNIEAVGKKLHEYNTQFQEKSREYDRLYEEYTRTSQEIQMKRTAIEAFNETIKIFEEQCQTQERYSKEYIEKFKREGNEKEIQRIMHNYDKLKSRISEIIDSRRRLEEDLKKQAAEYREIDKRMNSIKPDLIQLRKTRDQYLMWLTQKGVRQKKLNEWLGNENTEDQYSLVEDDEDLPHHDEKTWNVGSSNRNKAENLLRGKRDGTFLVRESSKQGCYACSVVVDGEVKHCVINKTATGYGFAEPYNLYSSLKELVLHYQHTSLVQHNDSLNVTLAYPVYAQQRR

| IC50 (PI3Kα; [4]) [µM] | IC50 (PI3Kα; read-out: inhibition value IC50 to the activity of PI3Kα) [µM] | IC50 [1, 5] [µM] | IC50 (HDAC1; [6]) [µM] | IC50 [2, 7] [µM] | IC50 [3, 8] [µM] | IC50 [1, 9] [µM] | IC50 [2, 10] [µM] | IC50 [3, 11] [µM] | IC50 (HDAC1; [12]) [µM] | Compound |
| --- | --- | --- | --- | --- | --- | --- | --- | --- | --- | --- |
| < 0.1 | < 0.1 | 0.01 to 0.1 | < 0.1 | 0.1 to 1 | 0.01 to 0.1 |  |  |  |  | CN(Cc1nc2c(N3CCOCC3)nc(-c3cncnc3)nc2n1C)c1ncc(C(=O)NO)cn1 [CLJ-10, 2-(((2-(pyrimidine-5-yl)-9-methyl-6-morpholine-9H-purine-8-yl))methyl(methyl)amino)-N-hydroxyl pyrimidine-5-formamide] |
| > 10 |  | 0.0001 to 0.01 | < 0.1 | 0.01 to 0.1 | 0.0001 to 0.01 |  |  |  |  | Cc1ccsc1-c1nc(N2CCOCC2)c2nc(CN(C)c3ncc(C(=O)NO)cn3)n(C)c2n1 [CLJ-19, 2-(((2-(3-methyl-2-thienyl)-9-methyl-6-morpholine-9H-purine-8-yl))methyl(methyl)amino)-N-hydroxyl pyrimidine-5-formamide] |
| > 10 |  | 0.0001 to 0.01 | < 0.001 | 0.0001 to 0.01 | 0.0001 to 0.01 | 0.0001 to 0.01 | 0.0001 to 0.01 | 0.0001 to 0.01 | < 0.001 | CN(Cc1nc2c(N3CCOCC3)nc(-c3ccsc3)nc2n1C)c1ncc(C(=O)NO)cn1 [CLJ-22, 2-(((2-(3-thienyl)-9-methyl-6-morpholine-9H-purine-8-yl))methyl(methyl)amino)-N-hydroxyl pyrimidine-5-formamide] |
| 1 to 10 |  | 0.0001 to 0.01 | < 0.001 | 0.0001 to 0.01 | 0.0001 to 0.01 | 0.0001 to 0.01 | 0.0001 to 0.01 | 0.0001 to 0.01 | < 0.001 | CN(Cc1nc2c(N3CCOCC3)nc(-c3ccc[nH]3)nc2n1C)c1ncc(C(=O)NO)cn1 [CLJ-24, 2-(((2-(1H-2-pyrrolyl)-9-methyl-6-morpholine-9H-purine-8-yl))methyl(methyl)amino)-N-hydroxyl pyrimidine-5-formamide] |
| > 10 |  | 0.0001 to 0.01 | < 0.001 | 0.01 to 0.1 | 0.01 to 0.1 |  |  |  | < 0.001 | CN(Cc1nc2c(N3CCOCC3)nc(-c3cccc(O)c3)nc2n1C)c1ncc(C(=O)NO)cn1 [CLJ-27, 2-(((2-(3-hydroxyphenyl)-9-methyl-6-morpholine-9H-purine-8-yl))methyl(methyl)amino)-N-hydroxyl pyrimidine-5-formamide] |
| > 10 |  | 0.0001 to 0.01 | < 0.1 | 0.01 to 0.1 | 0.01 to 0.1 |  |  |  |  | CCn1c(CN(C)c2ncc(C(=O)NO)cn2)nc2c(N3CCOCC3)nc(-c3ccc(OC)cc3)nc21 [CLJ-30, 2-((9-ethyl-2(4-methoxyphenyl)-6-morpholino-9H-purine-8-yl)methyl)(methyl)amino-N-hydroxyl pyrimidine-5-formamide] |
| > 10 |  | > 1 | 0.1 to 1 | > 1 | > 1 |  |  |  |  | COc1ccc(-c2nc(N3CCOCC3)c3nc(CN(C)c4ncc(C(=O)NO)cn4)n(C(C)C)c3n2)cc1 [CLJ-31] |
| > 10 |  | > 1 | 0.1 to 1 | > 1 | > 1 |  |  |  |  | COc1ccc(-c2nc(N3CCOCC3)c3nc(CN(C)c4ncc(C(=O)NO)cn4)n(C4CCCC4)c3n2)cc1 [CLJ-32, 2-(((9-cyclopentyl-2(4-methoxyphenyl)-6-morpholine-9H-purine-8-yl)methyl)(methyl)amino)-N-hydroxyl pyrimidine-5-formamide] |
| > 10 |  | 0.0001 to 0.01 | < 0.001 | 0.0001 to 0.01 | 0.0001 to 0.01 | 0.0001 to 0.01 | 0.0001 to 0.01 | 0.0001 to 0.01 | < 0.001 | CN(Cc1nc2c(N3CCOCC3)nc(-c3ccc4c(c3)OCO4)nc2n1C)c1ncc(C(=O)NO)cn1 [CLJ-36, 2-(((2-(benzo[d][1,3]dioxole-5-yl)-9-methyl-6-morpholine-9H-purine-8-yl))methyl(methyl)amino)-N-hydroxyl pyrimidine-5-formamide] |

More lines, now with the values behind:

| Compound | IC50 (PI3Kα; [4]) [µM] | IC50 (PI3Kα; read-out: inhibition value IC50 to the activity of PI3Kα) [µM] | IC50 [1, 5] [µM] | IC50 (HDAC1; [6]) [µM] | IC50 [2, 7] [µM] | IC50 [3, 8] [µM] | IC50 [1, 9] [µM] | IC50 [2, 10] [µM] | IC50 [3, 11] [µM] | IC50 (HDAC1; [12]) [µM] |
| --- | --- | --- | --- | --- | --- | --- | --- | --- | --- | --- |
| CCCN(Cc1nc2c(N3CCOCC3)nc(-c3ccc4[nH]ncc4c3)nc2n1C)c1ncc(C(=O)NO)cn1 [CLJ-16, N-hydroxy-2-(((2-(1H-indazole-5-yl)-9-methyl-6-morpholine-9H-purine-8-yl))methyl(propyl)amino)pyrimidine-5-formamide] | > 10 |  | > 1 | 0.1 to 1 | > 1 | > 1 |  |  |  |  |
| CCCCN(Cc1nc2c(N3CCOCC3)nc(-c3ccc4[nH]ncc4c3)nc2n1C)c1ncc(C(=O)NO)cn1 [CLJ-17, N-hydroxy-2-(((2-(1H-indazole-5-yl)-9-methyl-6-morpholine-9H-purine-8-yl))methyl(butyl)amino)pyrimidine-5-formamide] | > 10 |  | > 1 | 0.1 to 1 | > 1 | > 1 |  |  |  |  |
| CN(Cc1nc2c(N3CCOCC3)nc(-c3cccs3)nc2n1C)c1ncc(C(=O)NO)cn1 [CLJ-18, 2-(((2-(2-thienyl)-9-methyl-6-morpholine-9H-purine-8-yl))methyl(methyl)amino)-N-hydroxyl pyrimidine-5-formamide] | > 10 |  | 0.0001 to 0.01 | < 0.1 | 0.01 to 0.1 | 0.0001 to 0.01 |  |  |  |  |
| CN(Cc1nc2c(N3CCOCC3)nc(-c3ccc(C(=O)O)s3)nc2n1C)c1ncc(C(=O)NO)cn1 [CLJ-20, 2-(((2-(5-carboxyl-2-thienyl)-9-methyl-6-morpholine-9H-purine-8-yl))methyl(methyl)amino)-N-hydroxyl pyrimidine-5-formamide] | > 10 |  | 0.0001 to 0.01 | < 0.1 | 0.01 to 0.1 | 0.0001 to 0.01 |  |  |  |  |
| CCCCc1ccc(-c2nc(N3CCOCC3)c3nc(CN(C)c4ncc(C(=O)NO)cn4)n(C)c3n2)s1 [CLJ-21, 2-(((2-(5-n-butyl-2-thienyl)-9-methyl-6-morpholine-9H-purine-8-yl))methyl(methyl)amino)-N-hydroxyl pyrimidine-5-formamide] | > 10 |  | 0.0001 to 0.01 | < 0.1 | 0.0001 to 0.01 | 0.0001 to 0.01 | 0.0001 to 0.01 | 0.0001 to 0.01 | 0.0001 to 0.01 |  |
| Cc1cscc1-c1nc(N2CCOCC2)c2nc(CN(C)c3ncc(C(=O)NO)cn3)n(C)c2n1 [CLJ-23] | > 10 |  | 0.0001 to 0.01 | < 0.1 | 0.0001 to 0.01 | 0.0001 to 0.01 | 0.0001 to 0.01 | 0.0001 to 0.01 | 0.0001 to 0.01 |  |
| CN(C)CCn1cc(-c2nc(N3CCOCC3)c3nc(CN(C)c4ncc(C(=O)NO)cn4)n(C)c3n2)cn1 [CLJ-25] | 1 to 10 |  | 0.0001 to 0.01 | < 0.1 | 0.0001 to 0.01 | 0.0001 to 0.01 | 0.0001 to 0.01 | 0.0001 to 0.01 | 0.0001 to 0.01 |  |
| COc1cc(-c2nc(N3CCOCC3)c3nc(CN(C)c4ncc(C(=O)NO)cn4)n(C)c3n2)cc(OC)c1OC [CLJ-35, 2-(((2-(3,4,5-trimetoxyphenyl)-9-methyl-6-morpholine-9H-purine-8-yl))methyl(methyl)amino)-N-hydroxyl pyrimidine-5-formamide] | > 10 |  | 0.0001 to 0.01 | < 0.1 | 0.01 to 0.1 | 0.01 to 0.1 |  |  |  |  |
